From patent publication US20240058464A1 (Fortis Therapeutics, Inc., priority 2021, published 2024)
Where a SMILES comes first, the peptide text is derived from it. [ ]: non-standard residue; d: D form. The star is where a group is joined. dPhe(4-NHCONH2) = NC(=O)Nc1ccc(C[C@@H](N)C(=O)O)cc1; Dihydroorotyl(S) = O=C1C[C@@H](C(=O)*)NC(=O)N1; dPhe(4-Cl) = N[C@H](Cc1ccc(Cl)cc1)C(=O)O; Phe(4-NH2) = Nc1ccc(C[C@H](N)C(=O)O)cc1; d2Nal = N[C@H](Cc1ccc2ccccc2c1)C(=O)O; Lys(iPr) = CC(C)NCCCC[C@H](N)C(=O)O; d3Pal = N[C@H](Cc1cccnc1)C(=O)O

Test system: CD46 expression
Assay: CD46 expression by RNA-sequencing in unpaired pre-treatment and post-treatment tumor biopsies
Assay type: in vivo, human
[1] = Breast Cancer, post minus pre, unpaired biopsies
[2] = Breast Cancer, post vs pre, unpaired biopsies
[3] = Breast Cancer, post-treatment biopsies, log2-transformed RNA-seq counts
[4] = Non-Small Cell Lung Cancer, Post minus Pre, unpaired biopsies, log2-transformed counts
[5] = Non-Small Cell Lung Cancer, post- vs pre-treatment unpaired biopsies
[6] = Non-Small Cell Lung Cancer, post-treatment biopsies, unpaired, RNA-seq log2-transformed normalized counts
[7] = Clear Cell Renal Cell Carcinoma, post minus pre, unpaired biopsies
[8] = Clear Cell Renal Cell Carcinoma, post vs pre, unpaired biopsies
[9] = Clear Cell Renal Cell Carcinoma, post-treatment biopsies, log2-transformed RNA-seq counts
[10] = Melanoma, Post minus Pre, unpaired biopsies, log2-transformed counts
[11] = Melanoma, post- vs pre-treatment unpaired biopsies
[12] = Melanoma, post-treatment biopsies, unpaired, RNA-seq log2-transformed normalized counts
[13] = Endocrine Tumor, Post minus Pre, unpaired biopsies, log2-transformed counts
[14] = Endocrine Tumor, post- vs pre-treatment unpaired biopsies
[15] = Endocrine Tumor, post-treatment biopsies, unpaired, RNA-seq log2-transformed normalized counts
[16] = Sarcoma, Post minus Pre, unpaired biopsies, log2-transformed counts
[17] = Sarcoma, post- vs pre-treatment unpaired biopsies
[18] = Sarcoma, post-treatment biopsies, unpaired, RNA-seq log2-transformed normalized counts
[19] = Breast Cancer, Post minus Pre, unpaired biopsies, log2-transformed counts
[20] = Breast Cancer, post- vs pre-treatment unpaired biopsies
[21] = Breast Cancer, post-treatment biopsies, unpaired, RNA-seq log2-transformed normalized counts
[22] = Colorectal Cancer, Post minus Pre, unpaired biopsies, log2-transformed counts
[23] = Colorectal Cancer, post- vs pre-treatment unpaired biopsies
[24] = Colorectal Cancer, post-treatment biopsies, unpaired, RNA-seq log2-transformed normalized counts
[25] = Bladder Cancer, post minus pre, unpaired biopsies
[26] = Bladder Cancer, post vs pre, unpaired biopsies
[27] = Bladder Cancer, post-treatment biopsies, log2-transformed RNA-seq counts

CCN1CCN(Cc2ccc(Nc3ncc(F)c(-c4cc(F)c5nc(C)n(C(C)C)c5c4)n3)nc2)CC1 [abemaciclib]
CD46 expression diff [1]: −0.15 | CD46 expression Percentage change [2]: −2.4% | CD46 expression Post [3]: 6.33

CN(C)C/C=C/C(=O)Nc1cc2c(Nc3ccc(F)c(Cl)c3)ncnc2cc1O[C@H]1CCOC1 [afatinib]
CD46 expression diff [4]: 0.11 | CD46 expression Percentage change [5]: 1.7% | CD46 expression Post [6]: 6.43

CCc1cc2c(cc1N1CCC(N3CCOCC3)CC1)C(C)(C)c1[nH]c3cc(C#N)ccc3c1C2=O [alectinib]
CD46 expression diff [4]: −0.03 | CD46 expression Percentage change [5]: −0.5% | CD46 expression Post [6]: 6.18

CNC(=O)c1ccc(N2C(=S)N(c3cnc(C#N)c(C(F)(F)F)c3)C(=O)C23CCC3)cc1F [apalutamide]
CD46 expression diff (Prostate Cancer, Post minus Pre, unpaired biopsies, log2-transformed counts): −0.03 | CD46 expression Percentage change (Prostate Cancer, post- vs pre-treatment unpaired biopsies): −0.5% | CD46 expression Post (Prostate Cancer, post-treatment biopsies, unpaired, RNA-seq log2-transformed normalized counts): 6.14

CNC(=O)c1ccccc1Sc1ccc2c(/C=C/c3ccccn3)n[nH]c2c1 [axitinib]
CD46 expression diff [7]: −0.29 | CD46 expression Percentage change [8]: −5.1% | CD46 expression Post [9]: 5.43

COc1cc2nccc(Oc3ccc(NC(=O)C4(C(=O)Nc5ccc(F)cc5)CC4)cc3)c2cc1OC [cabozantinib]
CD46 expression diff (Clear Cell Renal Cell Carcinoma, Post minus Pre, unpaired biopsies, log2-transformed counts): −0.12 | CD46 expression Percentage change (Clear Cell Renal Cell Carcinoma, post- vs pre-treatment unpaired biopsies): −2.1% | CD46 expression Post (Clear Cell Renal Cell Carcinoma, post-treatment biopsies, unpaired, RNA-seq log2-transformed normalized counts): 5.44

C[C@@H](Oc1cc(-c2cnn(C3CCNCC3)c2)cnc1N)c1c(Cl)ccc(F)c1Cl [crizotinib]
CD46 expression diff [4]: 0.16 | CD46 expression Percentage change [5]: 2.7%

CC(C)(C)c1nc(-c2cccc(NS(=O)(=O)c3c(F)cccc3F)c2F)c(-c2ccnc(N)n2)s1 [dabrafenib]
CD46 expression diff [10]: 0.11 | CD46 expression Percentage change [11]: 2.0% | CD46 expression Post [12]: 5.42

CC(=O)N[C@H](Cc1ccc2ccccc2c1)C(=O)N[C@H](Cc1ccc(Cl)cc1)C(=O)N[C@H](Cc1cccnc1)C(=O)N[C@@H](CO)C(=O)N[C@@H](Cc1ccc(NC(=O)[C@@H]2CC(=O)NC(=O)N2)cc1)C(=O)N[C@H](Cc1ccc(NC(N)=O)cc1)C(=O)N[C@@H](CC(C)C)C(=O)N[C@@H](CCCCNC(C)C)C(=O)N1CCC[C@H]1C(=O)N[C@H](C)C(N)=O [degarelix] (Ac-[d2Nal][dPhe(4-Cl)][d3Pal]S[Phe(4-NH2)](Dihydroorotyl(S))[dPhe(4-NHCONH2)]L[Lys(iPr)]P[dA]-NH2)
CD46 expression diff (Prostate Cancer, post minus pre, unpaired biopsies): −0.29 | CD46 expression Percentage change (Prostate Cancer, post vs pre, unpaired biopsies): −4.6% | CD46 expression Post (Prostate Cancer, post-treatment biopsies, log2-transformed RNA-seq counts): 5.94 | CD46 expression Pre (Prostate Cancer, pre-treatment biopsies, log2-transformed RNA-seq counts): 6.23

C#Cc1cccc(Nc2ncnc3cc(OCCOC)c(OCCOC)cc23)c1 [erlotinib]
CD46 expression diff [4]: −0.04 | CD46 expression Percentage change [5]: −0.6% | CD46 expression Post [6]: 6.23

COc1cc([C@@H]2c3cc4c(cc3[C@@H](O[C@@H]3O[C@@H]5CO[C@@H](C)O[C@H]5[C@H](O)[C@H]3O)[C@H]3COC(=O)[C@H]23)OCO4)cc(OC)c1O [etoposide]
CD46 expression diff [13]: 0.11 | CD46 expression Percentage change [14]: 2.0% | CD46 expression Post [15]: 5.79 | CD46 expression diff [4]: 0.10 | CD46 expression Percentage change [5]: 1.7% | CD46 expression Post [6]: 5.98 | CD46 expression diff [16]: 0.30 | CD46 expression Percentage change [17]: 6.2% | CD46 expression Post [18]: 5.13

CO[C@H]1C[C@@H]2CC[C@@H](C)[C@@](O)(O2)C(=O)C(=O)N2CCCC[C@H]2C(=O)O[C@H]([C@H](C)C[C@@H]2CC[C@@H](OCCO)[C@H](OC)C2)CC(=O)[C@H](C)/C=C(\C)[C@@H](O)[C@@H](OC)C(=O)[C@H](C)C[C@H](C)/C=C/C=C/C=C/1C [everolimus]
CD46 expression diff [19]: 0.09 | CD46 expression Percentage change [20]: 1.4% | CD46 expression Post [21]: 6.46

CC(C)C[C@H](NC(=O)[C@@H](COC(C)(C)C)NC(=O)[C@H](Cc1ccc(O)cc1)NC(=O)[C@H](CO)NC(=O)[C@H](Cc1c[nH]c2ccccc12)NC(=O)[C@H](Cc1cnc[nH]1)NC(=O)[C@@H]1CCC(=O)N1)C(=O)N[C@@H](CCCNC(=N)N)C(=O)N1CCC[C@H]1C(=O)NNC(N)=O [goserelin]
CD46 expression diff [19]: 0.00 | CD46 expression Percentage change [20]: −0.1% | CD46 expression Post [21]: 6.38

CS(=O)(=O)CCNCc1ccc(-c2ccc3ncnc(Nc4ccc(OCc5cccc(F)c5)c(Cl)c4)c3c2)o1 [lapatinib]
CD46 expression diff [19]: −0.08 | CD46 expression Percentage change [20]: −1.2% | CD46 expression Post [21]: 6.22

COc1cc2nccc(Oc3ccc(NC(=O)NC4CC4)c(Cl)c3)c2cc1C(N)=O [lenvatinib]
CD46 expression diff (Thyroid Cancer, Post minus Pre, unpaired biopsies, log2-transformed counts): −0.02 | CD46 expression Percentage change (Thyroid Cancer, post- vs pre-treatment unpaired biopsies): −0.4% | CD46 expression Post (Thyroid Cancer, post-treatment biopsies, unpaired, RNA-seq log2-transformed normalized counts): 5.82

N[C@@H](Cc1cc(I)c(Oc2cc(I)c(O)c(I)c2)c(I)c1)C(=O)O [levothyroxine]
CD46 expression diff (Non-Small Cell Lung Cancer, post minus pre, unpaired biopsies): −0.17 | CD46 expression Percentage change (Non-Small Cell Lung Cancer, post vs pre, unpaired biopsies): −2.9% | CD46 expression Post (Non-Small Cell Lung Cancer, post-treatment biopsies, log2-transformed RNA-seq counts): 5.87

O=S(=O)(O)CCS [mesna]
CD46 expression diff (Sarcoma, post minus pre, unpaired biopsies): −0.16 | CD46 expression Percentage change (Sarcoma, post vs pre, unpaired biopsies): −3.2% | CD46 expression Post (Sarcoma, post-treatment biopsies, log2-transformed RNA-seq counts): 4.88

CN(C)C(=N)N=C(N)N [metformin]
CD46 expression diff [22]: 0.27 | CD46 expression Percentage change [23]: 4.2% | CD46 expression Post [24]: 6.70 | CD46 expression diff [4]: 0.03 | CD46 expression Percentage change [5]: 0.5% | CD46 expression Post [6]: 6.07

CN(Cc1cnc2nc(N)nc(N)c2n1)c1ccc(C(=O)N[C@@H](CCC(=O)O)C(=O)O)cc1 [methotrexate]
CD46 expression diff [25]: −0.25 | CD46 expression Percentage change [26]: −4.0% | CD46 expression Post [27]: 5.88 | CD46 expression diff [19]: 0.07 | CD46 expression Percentage change [20]: 1.2% | CD46 expression Post [21]: 6.32

C[C@H]1C[C@@H]2[C@H]([C@@H](O)C[C@@]3(C)[C@H]2CC[C@]3(O)C(=O)CO)[C@@]2(C)C=CC(=O)C=C12 [methylprednisolone]
CD46 expression diff [19]: 0.31 | CD46 expression Percentage change [20]: 5.0% | CD46 expression Post [21]: 6.49 | CD46 expression diff [4]: −0.04 | CD46 expression Percentage change [5]: −0.6% | CD46 expression Post [6]: 6.16

CO[C@@]12[C@H](COC(N)=O)C3=C(C(=O)C(C)=C(N)C3=O)N1C[C@@H]1N[C@@H]12 [mitomycin]
CD46 expression diff [22]: 0.23 | CD46 expression Percentage change [23]: 3.9% | CD46 expression Post [24]: 5.93

NC(=O)c1cccc2cn(-c3ccc([C@@H]4CCCNC4)cc3)nc12 [niraparib]
CD46 expression Percentage change (in vivo): 0.1% | CD46 expression Post (in vivo): 5.72 | CD46 expression diff (in vivo): 0.00

C[C@@H](O)[C@@H]1NC(=O)[C@H](CCCCN)NC(=O)[C@@H](Cc2c[nH]c3ccccc23)NC(=O)[C@H](Cc2ccccc2)NC(=O)[C@@H](NC(=O)[C@H](N)Cc2ccccc2)CSSC[C@@H](C(=O)N[C@H](CO)[C@@H](C)O)NC1=O [octreotide]
CD46 expression diff [13]: −0.05 | CD46 expression Percentage change [14]: −0.9% | CD46 expression Post [15]: 5.59

Cc1ccc(Nc2nccc(N(C)c3ccc4c(C)n(C)nc4c3)n2)cc1S(N)(=O)=O [pazopanib]
CD46 expression diff [7]: −0.22 | CD46 expression Percentage change [8]: −4.0% | CD46 expression Post [9]: 5.37 | CD46 expression diff [16]: −0.10 | CD46 expression Percentage change [17]: −1.9% | CD46 expression Post [18]: 5.03

CN(C)C(=O)c1cc2cnc(Nc3ccc(N4CCNCC4)cn3)nc2n1C1CCCC1 [ribociclib]
CD46 expression diff [1]: −0.17 | CD46 expression Percentage change [2]: −2.6% | CD46 expression Post [3]: 6.30

COc1cc2c(cc1O)CCN[C@]21CS[C@@H]2c3c(OC(C)=O)c(C)c4c(c3[C@H](COC1=O)N1[C@@H]2[C@H]2c3c(cc(C)c(OC)c3O)C[C@@H]([C@@H]1O)N2C)OCO4 [trabectedin]
CD46 expression diff [16]: 0.00 | CD46 expression Percentage change [17]: −0.1% | CD46 expression Post [18]: 5.23

CC(=O)Nc1cccc(-n2c(=O)n(C3CC3)c(=O)c3c(Nc4ccc(I)cc4F)n(C)c(=O)c(C)c32)c1 [trametinib]
CD46 expression diff [10]: 0.08 | CD46 expression Percentage change [11]: 1.4% | CD46 expression Post [12]: 5.39

CC[C@]1(O)C[C@@H]2CN(CCc3c([nH]c4ccccc34)[C@@](C(=O)OC)(c3cc4c(cc3OC)N(C)[C@H]3[C@@](O)(C(=O)OC)[C@H](OC(C)=O)[C@]5(CC)C=CCN6CC[C@]43[C@@H]65)C2)C1 [vinblastine]
CD46 expression diff [25]: −0.24 | CD46 expression Percentage change [26]: −3.9% | CD46 expression Post [27]: 5.89

CC[C@]1(O)C[C@H]2CN(CCc3c([nH]c4ccccc34)[C@@](C(=O)OC)(c3cc4c(cc3OC)N(C=O)[C@H]3[C@@](O)(C(=O)OC)[C@H](OC(C)=O)[C@]5(CC)C=CCN6CC[C@]43[C@@H]65)C2)C1 [vincristine]
CD46 expression diff [16]: −0.03 | CD46 expression Percentage change [17]: −0.5% | CD46 expression Post [18]: 5.09
